Data published in the supplement of paper PMC4862054.

Each molecule was assayed on HDQ-P1 (assay: normalised response (% of control), CellTiter-Glo; higher = more viable cells (100 = DMSO, 0 = benzethonium chloride kill control)). Conditions: incubation time: 72 h.
Procedure, shortened: (§1)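 Breast cancer cell lines (20 µl suspension) were seeded into 384-well plates holding compound at 5 concentrations in 10-fold steps over a compound-specific 10,000-fold range, then incubated 72 h. CellTox Green fluorescence (485/520 nm) was read first, then CellTiter-Glo luminescence after 10 min at room temperature. Each plate was normalised to 0.1 % DMSO (100) and a positive kill control (0). Each value is the normalised signal at a single concentration of the series.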

SMILES	normalised response [%]
CNC(=O)c1ccc(N2C(=S)N(c3ccc(C#N)c(C(F)(F)F)c3)C(=O)C2(C)C)cc1F [Enzalutamide] (10 nM)	100
C=C1C[C@@H]2[C@H](CC[C@]3(C)C(=O)CC[C@@H]23)[C@@]2(C)C=CC(=O)C=C12 [Exemestane] (10 nM)	98.9
Cc1cc(Nc2cc(CN3CCOCC3)c3nc(C)c(Cc4ccc(Cl)cc4F)n3n2)n[nH]1 [Gandotinib] (10 nM)	106
O=C(Nc1ccncc1)C(=O)c1cn(Cc2ccc(Cl)cc2)c2ccccc12 [Indibulin] (10 nM)	94.1
Cc1ccc(NC(=O)c2ccc(CN3CCN(C)CC3)cc2)cc1Nc1nc(-c2cccnc2)cs1 [Masitinib] (10 nM)	93.6
Cc1[nH]c2ccccc2c1CCNCc1ccc(/C=C/C(=O)NO)cc1 [Panobinostat] (1 nM)	102
COCC1(CO)C(=O)C2CCN1CC2 (centres undefined) [Prima-1 Met] (10 nM)	95.1

What follows are molecules tested on MDA-MB-453 in the same assay as above. Conditions: incubation time: 72 h.
Procedure, shortened: as §1

SMILES	normalised response [%]
CCn1c(-c2nonc2N)nc2cnc(Oc3cccc(NC(=O)c4ccc(OCCN5CCOCC5)cc4)c3)cc21 (1 nM)	101
CCn1c(-c2nonc2N)nc2cnc(Oc3cccc(NC(=O)c4ccc(OCCN5CCOCC5)cc4)c3)cc21 (10 nM)	91.3
N#Cc1ccc(COC[C@H]2O[C@@H](n3c(NCc4ccc(Cl)c(Cl)c4)nc4c(N)ncnc43)[C@H](O)[C@@H]2O)cc1 (10 nM)	106
COc1cc(O)c2c(c1)/C=C/C[C@H](O)[C@H](O)C(=O)/C=C\C[C@H](C)OC2=O [(5Z)-7-Oxozeaenol] (1 nM)	106
COc1cc(O)c2c(c1)/C=C/C[C@H](O)[C@H](O)C(=O)/C=C\C[C@H](C)OC2=O [(5Z)-7-Oxozeaenol] (10 nM)	93
COc1cc(OC2CCN(C)CC2)ccc1Nc1ncc2c(n1)n(C1CCCC1)c(=O)n2C [AZ 3146] (10 nM)	97.8
CNC(=O)c1cccc(-c2ccc3c(N4CCOC[C@@H]4C)nc(N4CCOC[C@@H]4C)nc3n2)c1 [AZD2014] (1 nM)	105
CNC(=O)c1cccc(-c2ccc3c(N4CCOC[C@@H]4C)nc(N4CCOC[C@@H]4C)nc3n2)c1 [AZD2014] (10 nM)	101
CN(C)c1nc(N(C)C)nc(N(C)C)n1 [Altretamine] (10 nM)	115
O=C(/C=C/c1cccc(S(=O)(=O)Nc2ccccc2)c1)NO [Belinostat] (10 nM)	97.1
Nc1cc(C(F)(F)F)c(-c2cc(N3CCOCC3)nc(N3CCOCC3)n2)cn1 [Buparlisib] (1 nM)	101
Nc1cc(C(F)(F)F)c(-c2cc(N3CCOCC3)nc(N3CCOCC3)n2)cn1 [Buparlisib] (10 nM)	104
O=P1(N(CCCl)CCCl)NCCCO1 (centres undefined) [Cyclophosphamide] (40 nM)	106
CNC(=O)c1ccc(N2C(=S)N(c3ccc(C#N)c(C(F)(F)F)c3)C(=O)C2(C)C)cc1F [Enzalutamide] (1 nM)	103
CNC(=O)c1ccc(N2C(=S)N(c3ccc(C#N)c(C(F)(F)F)c3)C(=O)C2(C)C)cc1F [Enzalutamide] (10 nM)	99
C=C1C[C@@H]2[C@H](CC[C@]3(C)C(=O)CC[C@@H]23)[C@@]2(C)C=CC(=O)C=C12 [Exemestane] (10 nM)	116
Cc1cc(Nc2cc(CN3CCOCC3)c3nc(C)c(Cc4ccc(Cl)cc4F)n3n2)n[nH]1 [Gandotinib] (10 nM)	99.3
O=C(Nc1ccncc1)C(=O)c1cn(Cc2ccc(Cl)cc2)c2ccccc12 [Indibulin] (10 nM)	95
Cc1ccc(NC(=O)c2ccc(CN3CCN(C)CC3)cc2)cc1Nc1nc(-c2cccnc2)cs1 [Masitinib] (10 nM)	113
Cc1[nH]c2ccccc2c1CCNCc1ccc(/C=C/C(=O)NO)cc1 [Panobinostat] (1 nM)	92.8
COCC1(CO)C(=O)C2CCN1CC2 (centres undefined) [Prima-1 Met] (10 nM)	111

Each molecule was assayed on HCC1599 in the same assay as above. Conditions: incubation time: 72 h.
Procedure, shortened: as §1

SMILES	normalised response [%]
CCn1c(-c2nonc2N)nc2cnc(Oc3cccc(NC(=O)c4ccc(OCCN5CCOCC5)cc4)c3)cc21 (1 nM)	103
CCn1c(-c2nonc2N)nc2cnc(Oc3cccc(NC(=O)c4ccc(OCCN5CCOCC5)cc4)c3)cc21 (10 nM)	104
N#Cc1ccc(COC[C@H]2O[C@@H](n3c(NCc4ccc(Cl)c(Cl)c4)nc4c(N)ncnc43)[C@H](O)[C@@H]2O)cc1 (10 nM)	92.3
COc1cc(O)c2c(c1)/C=C/C[C@H](O)[C@H](O)C(=O)/C=C\C[C@H](C)OC2=O [(5Z)-7-Oxozeaenol] (1 nM)	91.8
COc1cc(O)c2c(c1)/C=C/C[C@H](O)[C@H](O)C(=O)/C=C\C[C@H](C)OC2=O [(5Z)-7-Oxozeaenol] (10 nM)	121
COc1cc(OC2CCN(C)CC2)ccc1Nc1ncc2c(n1)n(C1CCCC1)c(=O)n2C [AZ 3146] (10 nM)	95.9
CNC(=O)c1cccc(-c2ccc3c(N4CCOC[C@@H]4C)nc(N4CCOC[C@@H]4C)nc3n2)c1 [AZD2014] (1 nM)	92
CNC(=O)c1cccc(-c2ccc3c(N4CCOC[C@@H]4C)nc(N4CCOC[C@@H]4C)nc3n2)c1 [AZD2014] (10 nM)	115
CN(C)c1nc(N(C)C)nc(N(C)C)n1 [Altretamine] (10 nM)	103
O=C(/C=C/c1cccc(S(=O)(=O)Nc2ccccc2)c1)NO [Belinostat] (10 nM)	96.5
Nc1cc(C(F)(F)F)c(-c2cc(N3CCOCC3)nc(N3CCOCC3)n2)cn1 [Buparlisib] (1 nM)	90.2
Nc1cc(C(F)(F)F)c(-c2cc(N3CCOCC3)nc(N3CCOCC3)n2)cn1 [Buparlisib] (10 nM)	108
O=P1(N(CCCl)CCCl)NCCCO1 (centres undefined) [Cyclophosphamide] (40 nM)	98.2
CNC(=O)c1ccc(N2C(=S)N(c3ccc(C#N)c(C(F)(F)F)c3)C(=O)C2(C)C)cc1F [Enzalutamide] (1 nM)	108
CNC(=O)c1ccc(N2C(=S)N(c3ccc(C#N)c(C(F)(F)F)c3)C(=O)C2(C)C)cc1F [Enzalutamide] (10 nM)	95.8
C=C1C[C@@H]2[C@H](CC[C@]3(C)C(=O)CC[C@@H]23)[C@@]2(C)C=CC(=O)C=C12 [Exemestane] (10 nM)	99.1
Cc1cc(Nc2cc(CN3CCOCC3)c3nc(C)c(Cc4ccc(Cl)cc4F)n3n2)n[nH]1 [Gandotinib] (10 nM)	118
O=C(Nc1ccncc1)C(=O)c1cn(Cc2ccc(Cl)cc2)c2ccccc12 [Indibulin] (10 nM)	93.4
Cc1ccc(NC(=O)c2ccc(CN3CCN(C)CC3)cc2)cc1Nc1nc(-c2cccnc2)cs1 [Masitinib] (10 nM)	93.8
Cc1[nH]c2ccccc2c1CCNCc1ccc(/C=C/C(=O)NO)cc1 [Panobinostat] (1 nM)	100
COCC1(CO)C(=O)C2CCN1CC2 (centres undefined) [Prima-1 Met] (10 nM)	92.7
